From article PMC3196554 (Chemical research in toxicology, 2010)
Where two headings read alike, the source gives them in different places.

Tests used:
[1] = cited from earlier work
[2] = 14C-PhIP; cited from earlier work
P450 1A2 [3] = details: subjects given furafylline prior to cooked beef; cited from earlier work
[4] = for Amount in urine collected for 10 h after consumption of cooked beef: Mean ± SD of 3 independent measurements; for % Dose in urine collected for 10 h after consumption of cooked beef: metabolites as % of dose of parent MeIQx or PhIP; for Amount in urine, Overall mean: mean of 3 days
[5] = human, in vivo
P450 1A2 [6] = details: human liver microsomes, cited from earlier work
P450 1A2 [7] = details: human hepatocytes pretreated with furafylline; cited from earlier work
[8] = Acid hydrolysis of conjugates; assay type: physicochemical; details: 50% (v/v) glacial acetic acid or 1 N HCl, 80 °C for 8 h
human liver UGTs = details: human liver microsomes fortified with UDPGA; cited from earlier work

Row | SMILES | pKa [1] | Share of elimination accounted for by P450 1A2 (P450 1A2 [3]) [%] | Amount in urine collected for 10 h after consumption of cooked beef ([4]; Subject S-001) [ng] | % Dose in urine collected for 10 h after consumption of cooked beef ([4]; Subject S-001) [% Dose] | Amount in urine collected for 10 h after consumption of cooked beef ([4]; Subject S-003) [ng] | % Dose in urine collected for 10 h after consumption of cooked beef ([4]; Subject S-003) [% Dose] | Amount in urine collected for 10 h after consumption of cooked beef ([4]; Subject S-005) [ng] | % Dose in urine collected for 10 h after consumption of cooked beef ([4]; Subject S-005) [% Dose] | Amount in urine collected for 10 h after consumption of cooked beef ([4]; Subject S-008) [ng] | % Dose in urine collected for 10 h after consumption of cooked beef ([4]; Subject S-008) [% Dose] | Amount in urine collected for 10 h after consumption of cooked beef ([4]; Subject S-009) [ng] | % Dose in urine collected for 10 h after consumption of cooked beef ([4]; Subject S-009) [% Dose] | Amount in urine collected for 10 h after consumption of cooked beef ([4]; Subject S-012) [ng] | % Dose in urine collected for 10 h after consumption of cooked beef ([4]; Subject S-012) [% Dose] | Amount in urine collected for 10 h after consumption of cooked beef ([4]; Subject S-013) [ng] | % Dose in urine collected for 10 h after consumption of cooked beef ([4]; Subject S-013) [% Dose] | Amount in urine collected for 10 h after consumption of cooked beef ([4]; Subject S-014) [ng] | % Dose in urine collected for 10 h after consumption of cooked beef ([4]; Subject S-014) [% Dose] | Amount in urine collected for 10 h after consumption of cooked beef ([4]; Subject S-015) [ng] | % Dose in urine collected for 10 h after consumption of cooked beef ([4]; Subject S-015) [% Dose] | other results
1 | Cn1c(N)nc2ncc(-c3ccccc3)cc21 [PhIP, 2-amino-1-methyl-6-phenylimidazo[4,5-b]pyridine] | 5.65 | 70 | 37.1 ± 3.3 | 0.8 | 6.5 ± 1.1 | 0.1 | 11.4 ± 0.9 | 0.2 | 9.5 ± 0.6 | 0.2 | 18.5 ± 1.6 | 0.4 | 17.0 ± 0.7 | 0.3 | 14.1 ± 1.2 | 0.3 | 8.9 ± 0.6 | 0.2 | 8.2 ± 1.0 | 0.2 | Proportion of the dose eliminated in urine within 24 h as isomeric HON-PhIP-N-glucuronide conjugates [2]: approximately 50%; Amount in urine collected for 10 h after consumption of cooked beef ([4]; Subject S-020): 18.9 ± 1.6 ng; % Dose in urine collected for 10 h after consumption of cooked beef ([4]; Subject S-020): 0.4 % Dose
2 | Cc1cnc2cc3nc(N)n(C)c3cc2n1 [MeIgQx, 2-amino-1,7-dimethylimidazo[4,5-g]quinoxaline] |  |  |  |  |  |  |  |  |  |  |  |  |  |  |  |  |  |  |  |  | Increase in amount in urine following acid hydrolysis [5]: up to 5 fold
3 | Cc1cnc2ccc3c(nc(N)n3C)c2n1 [MeIQx, 2-amino-3,8-dimethylimidazo[4,5-f]quinoxaline] | 5.94 | 90 | 80.3 ± 2.7 | 8.7 | 26.7 ± 1.6 | 2.9 | 32.4 ± 1.5 | 3.5 | 33.8 ± 1.3 | 3.7 | 45.7 ± 1.4 | 5.0 | 48.3 ± 1.9 | 5.2 | 60.9 ± 3.2 | 6.6 | 20.6 ± 0.9 | 2.2 | 39.2 ± 2.0 | 4.2 | Vmax, oxidation of the 8-methyl group to form IQx-8-CH2OH (P450 1A2 [6]): 0.1 nmol/min/mg protein; Vmax, production of HONH-MeIQx (P450 1A2 [6]): 3.9 nmol/ min/mg of protein; Km (P450 1A2 [6]; read-out: Km, oxidation of the 8-methyl group to form IQx-8-CH2OH): 3.1 µM; Km (P450 1A2 [6]; read-out: Km, production of HONH-MeIQx): 15 µM; Amount in urine, Overall mean ([4]; Subject 9): 22.1 pg/mL; Amount in urine, Overall mean ([4]; Subject 14): 10.4 pg/mL; Amount in urine, Overall mean ([4]; Subject 20): 29.2 pg/mL; Amount in urine collected for 10 h after consumption of cooked beef ([4]; Subject S-020): 51.5 ± 2.2 ng; % Dose in urine collected for 10 h after consumption of cooked beef ([4]; Subject S-020): 5.6 % Dose
4 | Cc1nc2c([nH]1)c(=O)n(C)c(=O)n2Cc1ccco1 [furafylline] |  |  |  |  |  |  |  |  |  |  |  |  |  |  |  |  |  |  |  |  | Inhibition of formation of 8-CH2OH-IQx, IQx-8-COOH and glucuronide conjugates of HONH-MeIQx and HONH-PhIP (P450 1A2 [7]): inhibited to a similar degree
5 | Cn1c(=N)n([C@@H]2O[C@H](C(=O)O)[C@@H](O)[C@H](O)[C@H]2O)c2ncc(-c3ccccc3)cc21 [PhIP-N3-Gl, N3-(ß-1-glucosidurony1)-2-amino-1-methy1-6-phenylimidazo[4,5-b]pyridine] |  |  |  |  |  |  |  |  |  |  |  |  |  |  |  |  |  |  |  |  | Behaviour under acid hydrolysis conditions [8]: stable; Proportion of the conjugate that underwent hydrolysis [8]: < 5%; Amount formed relative to PhIP-N^2-Gl (human liver UGTs): 10 fold; Amount present in urine samples ([4]; urine after meat consumption, LOQ ~50 pg/mL): below the LOQ
